How the values were obtained:
[1] = biological target: T1, thrombin (Homo sapiens, UniProt P00734); test: activated partial thromboplastin time (APTT) assay of pooled normal human plasma; format: biochemical; conditions: result in words
T1 construct: pooled, normal human plasma (George King Biomedical, Inc., Overland Park, Kansas); tissue George King Biomedical, Inc; host or cells: pooled normal human plasma
Procedure: Anticoagulant activity was determined by assaying APTT of pooled, normal human plasma (George King Biomedical, Inc., Overland Park, Kansas) (diluted 4:1, v/v, plasma:water) with a Coag-A-Mate 2001 instrument (General Diagnostics, Inc.. Morris Plains, New Jersey). Specifically, diluted plasma was mixed with stock solutions of hirudin peptides at concentrations ranging from 750 µg/ml in water, for non-sulfated hirudin peptides, to 35 µg/ml in water for sulfated hirudin peptides. The plasma and hirudin peptides were mixed to a final volume of 125 µl prior to each APTT determination.
We began the APTT assay by adding 92 µl of a crude thromboplastin suspension (General Diagnostics) and 100 µl of 0.3 M calcium chloride reagent to each well of a Coag-A-Mate dish (General Diagnostics) per APTT determination, to a final volume of assay mixture per well of 317 µl. The calcium chloride was prepared fresh prior to each assay. Activation times were constant at 180 sec.

[2] = biological target: T2, bovine plasma thrombin (Bos taurus, UniProt P00735); test: thrombin-catalyzed hydrolysis of tosyl-Gly-Pro-Arg-p-nitroanilide (Chromozym TH); format: biochemical; conditions: 4.2 x 10⁻⁶ M to 2.1 x 10⁻⁷ M peptide
T2 construct: bovine plasma thrombin, Calbiochem, Behring Diagnostics, La Jolla, CA; purchased Calbiochem, Behring Diagnostics, La Jolla, CA; host or cells: bovine plasma
Procedure: We analyzed the hirudin peptides of this invention for inhibition of thrombin-catalyzed hydrolysis of the tripeptidyl p-nitroanilide substrate tosyl-Gly-Pro-Arg-p-nitroanilide (Chromozym TH, Boehringer-Mannheim, Indianapolis, In.) spectrophotometrically at 420 nm on a Cary 219 double-beam spectrophotometer. Reactions were prepared by mixing 10 µl of thrombin solution (bovine plasma thrombin, Calbiochem, Behring Diagnostics, La Jolla, CA, 0.1 mg/ml in 0.1 M Tris-HCl, pH 7.4, 0.15 M NaCl) with 1.0 ml of 0.1 M Tris-HCl, pH 7.4, 0.15 M NaCl buffer. We then added 25 µl of substrate solution (4 mg/ml tosyl-Gly-Pro-Arg-p-nitroanilide in the above buffer) and varying amounts of hirudin₄₅₋₆₄ (as prepared in Example 4) from a 1.0 mg/ml stock solution to a final fixed volume of 1.035 ml, with final concentrations of thrombin and substrate of 2.8 x 10⁻⁸ M and 1.4 x 10⁻⁴ M, respectively.

Row | Compound | increase in clotting time (APTT) [1] | increase in clotting time (APTT) ([1]; listed as hirudin₅₃₋₆₂) | inhibitory effect on thrombin-catalyzed hydrolysis of the artificial substrate [2]
1 | H-NGDFEEIPEE-OH [des(Tyr-Leu) hirudin₅₃₋₆₂] | no comparative increase in clotting time | no reasonable inhibitory activity | –
2 | CC[C@H](C)[C@H](NC(=O)[C@H](CCC(=O)O)NC(=O)[C@H](CCC(=O)O)NC(=O)[C@H](Cc1ccccc1)NC(=O)[C@H](CC(=O)O)NC(=O)CNC(=O)[C@H](CC(N)=O)NC(=O)[C@H](CC(N)=O)NC(=O)[C@H](Cc1c[nH]cn1)NC(=O)[C@H](CO)NC(=O)[C@H](CCC(=O)O)NC(=O)[C@@H]1CCCN1C(=O)[C@H](CC(N)=O)NC(=O)[C@@H]1CCCN1C(=O)[C@@H](N)[C@@H](C)O)C(=O)N1CCC[C@H]1C(=O)N[C@@H](CCC(=O)O)C(=O)N[C@@H](CCC(=O)O)C(=O)N[C@@H](Cc1ccc(O)cc1)C(=O)N[C@@H](CC(C)C)C(=O)O [hirudin₄₅₋₆₄] | – | – | no measurable inhibitory effect

— patent EP0333356A2, “Hirudin peptides” (BIOGEN, INC., priority 1988, dated 1989)
